From PMC10620989, “Going beyond Binary: Rapid Identification of Protein–Protein Interaction Modulators Using a Multifragment Kinetic Target-Guided Synthesis Approach” (Journal of Medicinal Chemistry, 2023)

Legend:
[1] = target: GST-tagged mouse Mcl-1-(152–309) (Mus musculus, UniProt P97287); assay: Fluorescence polarization competitive binding assay, GST-Mcl-1 / FITC-Bim-BH3; details: for inhibition at 50 µM: compound at 50 µM; for inhibition at 100 µM: read-out: inhibition in the fluorescence polarization assay, fragments tested individually
Chain of GST-tagged mouse Mcl-1-(152–309) (P97287 152-309): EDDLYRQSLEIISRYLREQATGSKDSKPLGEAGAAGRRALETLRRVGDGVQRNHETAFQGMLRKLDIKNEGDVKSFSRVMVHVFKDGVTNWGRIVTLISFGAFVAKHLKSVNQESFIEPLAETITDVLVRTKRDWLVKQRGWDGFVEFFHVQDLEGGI

Mcl-1 [2] = target: T1, Mcl-1 (Mus musculus, UniProt P97287); assay: Multifragment KTGS screen against Mcl-1 (5 TA x 38 SZ per well), LC-MS/MS; details: for Amplification coefficient 5TA x 38SZ: multifragment KTGS, 190 combinations per well, 10 μM Mcl-1, 20 μM each fragment, pH 7.4, 37 °C, 10 h, peak area with protein / without protein; for KTGS hit call against Mcl-1: multifragment incubation, 10 µM Mcl-1, LC-MS/MS traces with vs without protein
T1 sequence (P97287 whole entry, the tested form may be a part): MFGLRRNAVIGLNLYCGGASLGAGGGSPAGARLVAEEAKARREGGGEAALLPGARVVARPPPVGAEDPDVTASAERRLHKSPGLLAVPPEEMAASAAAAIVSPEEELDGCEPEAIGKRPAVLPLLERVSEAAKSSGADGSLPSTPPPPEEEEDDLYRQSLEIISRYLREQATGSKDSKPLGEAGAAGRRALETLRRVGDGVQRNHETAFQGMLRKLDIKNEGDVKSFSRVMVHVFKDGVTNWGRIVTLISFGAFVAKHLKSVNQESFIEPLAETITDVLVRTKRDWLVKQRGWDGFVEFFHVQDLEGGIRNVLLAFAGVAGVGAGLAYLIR

Mcl-1 [3] = target: T1, Mcl-1; assay: Binary KTGS incubation (1 TA x 1 SZ) with Mcl-1, LC-MS/MS; details: binary incubation mixtures with and without Mcl-1

Structure (SMILES)	inhibition at 50 µM ([1]; FP) [%]	Amplification coefficient 5TA x 38SZ (Mcl-1 [2])	Amplification coefficient 1TA x 1SZ (Mcl-1 [3])	KTGS hit call against Mcl-1 (Mcl-1 [2])	IC50 ([1]; FP, GST-Mcl-1 and fluorescein-labeled Bim BH3 peptide, read-out: IC50 on Mcl-1) [µM]	inhibition at 100 µM [1] [%]
COc1cccc(CN(CCSc2ccccc2)Cc2ccc(S(=O)(=O)NC(=O)c3ccc(-c4ccccn4)cc3)cc2)c1 [SZ17TA25, O=C(NS(C1=CC=C(CN(CCSC2=CC=CC=C2)CC3=CC(OC)=CC=C3)C=C1)(=O)=O)C4=CC=C(C5=NC=CC=C5)C=C4]	93.6	7	4			
CC(=O)Nc1ccc(S(=O)(=O)NC(=O)Cn2c3ccccc3c3ccccc32)cc1 [SZ3TA15]				non-hit		
O=C(NS(=O)(=O)c1ccc(-c2ccc(C(F)(F)F)cc2)cc1)c1cccc(NCCc2ccccc2)c1 [SZ16TA44, O=C(NS(C1=CC=C(C2=CC=C(C(F)(F)F)C=C2)C=C1)(=O)=O)C3=CC(NCCC4=CC=CC=C4)=CC=C3]	98.1	12	4		31.5	
[N-]=[N+]=NS(=O)(=O)c1ccc(CN(CCSc2ccccc2)Cc2ccc(S(=O)(=O)NC(=O)c3ccc(-c4ccccn4)cc3)cc2)cc1 [SZ9TA25, O=C(NS(C1=CC=C(CN(CCSC2=CC=CC=C2)CC3=CC=C(S(=O)(N=[N+]=[N-])=O)C=C3)C=C1)(=O)=O)C4=CC=C(C5=NC=CC=C5)C=C4]	47.6	15	8			
CCOc1ccc(-c2ccc3c(c2)c(C(=O)NS(=O)(=O)c2cccc4c(N(C)C)cccc24)cn3C)cc1F [SZ21TA23, O=C(NS(C1=CC=CC2=C1C=CC=C2N(C)C)(=O)=O)C(C3=C4C=CC(C5=CC=C(OCC)C(F)=C5)=C3)=CN4C]	42.8	7	4			
O=C(Cn1c2ccccc2c2ccccc21)NS(=O)(=O)c1ccc(CN(CCSc2ccccc2)Cc2c(F)cccc2Cl)cc1 [SZ15TA15, O=C(NS(C1=CC=C(CN(CCSC2=CC=CC=C2)CC3=C(F)C=CC=C3Cl)C=C1)(=O)=O)CN4C(C=CC=C5)=C5C6=C4C=CC=C6]	53.6	9	10			
NS(=O)(=O)c1ccc(CN(CCSc2ccccc2)Cc2ccc(S(=O)(=O)NC(=O)Cn3c4ccccc4c4ccccc43)cc2)cc1 [SZ10TA15, O=C(NS(C1=CC=C(CN(CC2=CC=C(S(=O)(N)=O)C=C2)CCSC3=CC=CC=C3)C=C1)(=O)=O)CN4C(C=CC=C5)=C5C6=C4C=CC=C6]	37.4	10	8			
CC1(C)CCN(c2ccc(C(=O)NS(=O)(=O)c3ccc(CNc4cccc([N+](=O)[O-])c4)cc3)cc2)CC1 [SZ12TA2, O=C(NS(C1=CC=C(CNC2=CC=CC([N+]([O-])=O)=C2)C=C1)(=O)=O)C(C=C3)=CC=C3N4CCC(C)(C)CC4]	54.1	7	4			
[N-]=[N+]=NS(=O)(=O)c1ccc(NCCSc2ccccc2)c([N+](=O)[O-])c1 [SZ4]						23
Cc1cc(OCCCc2c(C(=O)NS(=O)(=O)c3ccc(C(=O)O)o3)[nH]c3c(-c4c(C)nn(C)c4C)c(Cl)ccc23)cc(C)c1Cl [compound 60, O=C(NS(C1=CC=C(C(O)=O)O1)(=O)=O)C2=C(CCCOC3=CC(C)=C(Cl)C(C)=C3)C4=CC=C(Cl)C(C5=C(C)N(C)N=C5C)=C4N2, reference compound]	> 99					
CC(C)(C)c1ccc(-c2ccc(S(=O)(=O)NC(=O)c3ccccc3)cc2)cc1 [SZ11TA1]				non-hit		
[N-]=[N+]=NS(=O)(=O)c1ccc(CN(CCSc2ccccc2)Cc2ccc(S(=O)(=O)N=[N+]=[N-])cc2)cc1 [SZ9]						13
